Test results as given in ChEMBL document CHEMBL3390836, “Mannich- and LedererManasse-based analogues of the natural product S-(+)-curcuphenol as cancer proliferation and migration inhibitors” (Medchemcomm, 2012).

Columns and labels:
MDA-MB-231 [1] = assay: Cytotoxicity against human MDA-MB-231 cells assessed as cell growth at 10 uM after 48 hrs by SRB assay relative to control; type: functional; settings: MDA-MB-231, 48 h, read-out: Activity
TK-10 = assay: Cytotoxicity against human TK10 cells assessed as cell growth at 10 uM after 48 hrs by SRB assay relative to control; type: functional; settings: TK-10, 48 h, read-out: Activity
SN12C = assay: Cytotoxicity against human SN12C cells assessed as cell growth at 10 uM after 48 hrs by SRB assay relative to control; type: functional; settings: read-out: Activity
RXF 393 = assay: Cytotoxicity against human RXF393 cells assessed as cell growth at 10 uM after 48 hrs by SRB assay relative to control; type: functional; settings: RXF 393, 48 h, read-out: Activity
CAKI-1 = assay: Cytotoxicity against human Caki1 cells assessed as cell growth at 10 uM after 48 hrs by SRB assay relative to control; type: functional; settings: CAKI-1, 48 h, read-out: Activity
ACHN = assay: Cytotoxicity against human ACHN cells assessed as cell growth at 10 uM after 48 hrs by SRB assay relative to control; type: functional; settings: read-out: Activity
786-0 = assay: Cytotoxicity against human 786-0 cells assessed as cell growth at 10 uM after 48 hrs by SRB assay relative to control; type: functional; settings: 786-0, 48 h, read-out: Activity
[2] = Cytotoxicity against human OVCAR5 cells assessed as cell growth at 10 uM after 48 hrs by SRB assay relative to control; type: functional; settings: OVCAR-5, 48 h, read-out: Activity
MDA-MB-231 [3] = assay: Cytotoxicity against human MDA-MB-231 cells assessed as growth inhibition after 24 hrs by MTT assay; type: cell-based; settings: MDA-MB-231, 24 h
[4] = Cytotoxicity against human OVCAR4 cells assessed as cell growth at 10 uM after 48 hrs by SRB assay relative to control; type: functional; settings: OVCAR-4, 48 h, read-out: Activity
[5] = Cytotoxicity against human OVCAR3 cells assessed as cell growth at 10 uM after 48 hrs by SRB assay relative to control; type: functional; settings: OVCAR-3, 48 h, read-out: Activity
IGROV-1 = assay: Cytotoxicity against human IGROV1 cells assessed as cell growth at 10 uM after 48 hrs by SRB assay relative to control; type: functional; settings: IGROV-1, 48 h, read-out: Activity
[6] = Cytotoxicity against human UACC62 cells assessed as cell growth at 10 uM after 48 hrs by SRB assay relative to control; type: functional; settings: UACC-62, 48 h, read-out: Activity
SK-MEL-2 = assay: Cytotoxicity against human SK-MEL-2 cells assessed as cell growth at 10 uM after 48 hrs by SRB assay relative to control; type: functional; settings: SK-MEL-2, 48 h, read-out: Activity
MDA-MB-435 = assay: Cytotoxicity against human MDA-MB-435 cells assessed as cell growth at 10 uM after 48 hrs by SRB assay relative to control; type: functional; settings: MDA-MB-435, 48 h, read-out: Activity
M14 = assay: Cytotoxicity against human M14 cells assessed as cell growth at 10 uM after 48 hrs by SRB assay relative to control; type: functional; settings: M14, 48 h, read-out: Activity
U-251 = assay: Cytotoxicity against human U251 cells assessed as cell growth at 10 uM after 48 hrs by SRB assay relative to control; type: functional; settings: U-251, 48 h, read-out: Activity
LOX IMVI = assay: Cytotoxicity against human LOXIMVI cells assessed as cell growth at 10 uM after 48 hrs by SRB assay relative to control; type: functional; settings: read-out: Activity
SNB-75 = assay: Cytotoxicity against human SNB75 cells assessed as cell growth at 10 uM after 48 hrs by SRB assay relative to control; type: functional; settings: SNB-75, 48 h, read-out: Activity
SF-539 = assay: Cytotoxicity against human SF539 cells assessed as cell growth at 10 uM after 48 hrs by SRB assay relative to control; type: functional; settings: SF-539, 48 h, read-out: Activity
SNB-19 = assay: Cytotoxicity against human SNB19 cells assessed as cell growth at 10 uM after 48 hrs by SRB assay relative to control; type: functional; settings: SNB-19, 48 h, read-out: Activity
KM12 = assay: Cytotoxicity against human KM12 cells assessed as cell growth at 10 uM after 48 hrs by SRB assay relative to control; type: functional; settings: KM12, 48 h, read-out: Activity
SW-620 = assay: Cytotoxicity against human SW620 cells assessed as cell growth at 10 uM after 48 hrs by SRB assay relative to control; type: functional; settings: SW-620, 48 h, read-out: Activity
HT-29 = assay: Cytotoxicity against human HT-29 cells assessed as cell growth at 10 uM after 48 hrs by SRB assay relative to control; type: functional; settings: HT-29, 48 h, read-out: Activity
HCC 2998 = assay: Cytotoxicity against human HCC2998 cells assessed as cell growth at 10 uM after 48 hrs by SRB assay relative to control; type: functional; settings: HCC 2998, 48 h, read-out: Activity
[7] = Cytotoxicity against human HCT116 cells assessed as cell growth at 10 uM after 48 hrs by SRB assay relative to control; type: functional; settings: HCT-116, 48 h, read-out: Activity
COLO 205 = assay: Cytotoxicity against human COLO205 cells assessed as cell growth at 10 uM after 48 hrs by SRB assay relative to control; type: functional; settings: COLO 205, 48 h, read-out: Activity
NCI-H322M = assay: Cytotoxicity against human NCI-H322M cells assessed as cell growth at 10 uM after 48 hrs by SRB assay relative to control; type: functional; settings: read-out: Activity
NCI-H23 = assay: Cytotoxicity against human NCI-H23 cells assessed as cell growth at 10 uM after 48 hrs by SRB assay relative to control; type: functional; settings: NCI-H23, 48 h, read-out: Activity
[8] = Cytotoxicity against human EKVX cells assessed as cell growth at 10 uM after 48 hrs by SRB assay relative to control; type: functional; settings: read-out: Activity
RPMI-8226 = assay: Cytotoxicity against human RPMI8226 cells assessed as cell growth at 10 uM after 48 hrs by SRB assay relative to control; type: functional; settings: RPMI-8226, 48 h, read-out: Activity
K562 = assay: Cytotoxicity against human K562 cells assessed as cell growth at 10 uM after 48 hrs by SRB assay relative to control; type: functional; settings: K562, 48 h, read-out: Activity
HL-60(TB) = assay: Cytotoxicity against human HL-60(TB) cells assessed as cell growth at 10 uM after 48 hrs by SRB assay relative to control; type: functional; settings: HL-60, 48 h, read-out: Activity
CCRF-CEM = assay: Cytotoxicity against human CCRF-CEM cells assessed as cell growth at 10 uM after 48 hrs by SRB assay relative to control; type: functional; settings: read-out: Activity
MDA-MB-231 [9] = assay: Growth inhibition of human MDA-MB-231 cells after 72 hrs by MTT assay; type: functional, cell-based; settings: MDA-MB-231, 72 h
MCF7 = assay: Growth inhibition of human MCF7 cells after 72 hrs by MTT assay; type: functional, cell-based; settings: MCF7, 72 h

SMILES	growth at 10 µM (MDA-MB-231 [1]) [%]	growth at 10 µM (TK-10) [%]	growth at 10 µM (SN12C) [%]	growth at 10 µM (RXF 393) [%]	growth at 10 µM (CAKI-1) [%]	growth at 10 µM (ACHN) [%]	growth at 10 µM (786-0) [%]	growth at 10 µM [2] [%]	IC50 (MDA-MB-231 [3]) [µM]	growth at 10 µM [4] [%]	growth at 10 µM [5] [%]	growth at 10 µM (IGROV-1) [%]	growth at 10 µM [6] [%]	growth at 10 µM (SK-MEL-2) [%]	growth at 10 µM (MDA-MB-435) [%]	growth at 10 µM (M14) [%]	growth at 10 µM (U-251) [%]	growth at 10 µM (LOX IMVI) [%]	growth at 10 µM (SNB-75) [%]	growth at 10 µM (SF-539) [%]	further results
CC(C)=CCC[C@H](C)c1ccc(C)c2c1OCN(CCCCCO)C2	93.4	73.7	78.6	90.1	78.1	94.1	69.5	87.4	> 20	95.5	99.7	90.4	82.8	92.7	97.1	84.2	83.8	77.6	85.6	84.5	growth at 10 µM (SNB-19): 88.8%; growth at 10 µM (KM12): 104%; growth at 10 µM (SW-620): 94.9%; growth at 10 µM (HT-29): 27.2%; growth at 10 µM (HCC 2998): 73.5%; growth at 10 µM [7]: 68.6%; growth at 10 µM (COLO 205): 90%; growth at 10 µM (NCI-H322M): 102%; growth at 10 µM (NCI-H23): 91.3%; growth at 10 µM [8]: 102%; growth at 10 µM (RPMI-8226): 76.7%; growth at 10 µM (K562): 31.1%; growth at 10 µM (HL-60(TB)): 51.7%; growth at 10 µM (CCRF-CEM): 96%; IC50 (MDA-MB-231 [9]): 5.4 µM; IC50 (MCF7): 6.9 µM
COc1ccc(CCNCc2c(C)ccc([C@@H](C)CCC=C(C)C)c2O)cc1OC	87.7	90.1	87.1	80.8	58.4	87.1	80.4	96.6	> 20	71	90.1	68.8	84.9	99.9	97.8	91	76.7	73.7	66.1	88.9	growth at 10 µM (SNB-19): 90.8%; growth at 10 µM (KM12): 89.9%; growth at 10 µM (SW-620): 84.9%; growth at 10 µM (HT-29): 48.9%; growth at 10 µM (HCC 2998): 15.7%; growth at 10 µM [7]: 58%; growth at 10 µM (COLO 205): 67.9%; growth at 10 µM (NCI-H322M): 99%; growth at 10 µM (NCI-H23): 74%; growth at 10 µM [8]: 82.3%; growth at 10 µM (RPMI-8226): 55.8%; growth at 10 µM (K562): 44.5%; growth at 10 µM (HL-60(TB)): 85.6%; growth at 10 µM (CCRF-CEM): 80.1%; IC50 (MDA-MB-231 [9]): > 50 µM; IC50 (MCF7): > 20 µM
CC(C)=CCC[C@H](C)c1ccc(C)c(CNCCCCCO)c1O	96.5	92.2	98	84.6	75.2	97.7	87.3	99.4	> 20	72.9	84.2	91.1	94.2	97.6	95	94.3	82.9	83.1	77.2	92.1	growth at 10 µM (SNB-19): 94.6%; growth at 10 µM (KM12): 97.3%; growth at 10 µM (SW-620): 91.9%; growth at 10 µM (HT-29): 55%; growth at 10 µM (HCC 2998): 73%; growth at 10 µM [7]: 78%; growth at 10 µM (COLO 205): 105%; growth at 10 µM (NCI-H322M): 104%; growth at 10 µM (NCI-H23): 92.5%; growth at 10 µM [8]: 90.5%; growth at 10 µM (RPMI-8226): 85.3%; growth at 10 µM (K562): 60.2%; growth at 10 µM (HL-60(TB)): 87.7%; growth at 10 µM (CCRF-CEM): 96.5%; IC50 (MDA-MB-231 [9]): 10.7 µM; IC50 (MCF7): 7.6 µM
CC(C)=CCC[C@H](C)c1ccc(C)c2c1OCN(CCO)C2	88.8	88.4	79.6	52.4	91.6	90.1	61	83.7	> 20	79	86.1	66.7	96.1	99.2	101	90.9	85.1	100	58.7	88.2	growth at 10 µM (SNB-19): 57.9%; growth at 10 µM (KM12): 103%; growth at 10 µM (SW-620): 100%; growth at 10 µM (HT-29): 68.7%; growth at 10 µM (HCC 2998): 84.4%; growth at 10 µM [7]: 71.8%; growth at 10 µM (COLO 205): 119%; growth at 10 µM (NCI-H322M): 104%; growth at 10 µM (NCI-H23): 81.7%; growth at 10 µM [8]: 97.2%; growth at 10 µM (RPMI-8226): 83.2%; growth at 10 µM (K562): 77.7%; growth at 10 µM (HL-60(TB)): 90.8%; growth at 10 µM (CCRF-CEM): 87.5%; IC50 (MDA-MB-231 [9]): 20.3 µM; IC50 (MCF7): 8.4 µM
CC(C)=CCC[C@H](C)c1ccc(C)c(CNCCO)c1O	86.1	81	91.5	79.2	74.6	97.9	83.7	87.6	> 20	108	95.7	94.9	92.7	93	95.8	101	87.2	88.7	77.7	96.5	growth at 10 µM (SNB-19): 88.1%; growth at 10 µM (KM12): 98.7%; growth at 10 µM (SW-620): 100%; growth at 10 µM (HT-29): 90.6%; growth at 10 µM (HCC 2998): 76.9%; growth at 10 µM [7]: 93.4%; growth at 10 µM (COLO 205): 105%; growth at 10 µM (NCI-H322M): 100%; growth at 10 µM (NCI-H23): 89.1%; growth at 10 µM [8]: 89%; growth at 10 µM (RPMI-8226): 86.9%; growth at 10 µM (K562): 76.8%; growth at 10 µM (HL-60(TB)): 92.7%; growth at 10 µM (CCRF-CEM): 102%; IC50 (MDA-MB-231 [9]): 14.4 µM; IC50 (MCF7): > 20 µM
